From the NIST ThermoML archive (doi:10.1016/j.jct.2019.01.028)

What was measured:
[1] = xn = mol fraction of the nth substance listed; conditions: transient hot wire
[2] = transient hot wire

CC(F)(F)F [1,1,1-trifluoroethane] + C=C(F)C(F)(F)F
[1], x1 = 0.5
Conditions	thermal conductivity [W/m/K]
265.44 K, 1220 kPa, Liquid	0.0777
284.11 K, 2050 kPa, Liquid	0.0715
285.09 K, 1060 kPa, Liquid	0.0696
307.25 K, 2030 kPa, Liquid	0.0625
307.34 K, 3050 kPa, Liquid	0.0644
324.39 K, 3040 kPa, Liquid	0.0585
334.34 K, 1080 kPa, Gas	0.01836
354.13 K, 1170 kPa, Gas	0.02059
354.52 K, 1730 kPa, Gas	0.02034
373.86 K, 2750 kPa, Gas	0.02379
374.86 K, 1900 kPa, Gas	0.02277
393.8 K, 3090 kPa, Gas	0.02622

[Ar] [argon]
[2], Gas
Conditions	thermal conductivity [W/m/K]
311.92 K, 20370 kPa	0.02811
312.12 K, 24160 kPa	0.03024
312.12 K, 31080 kPa	0.0342
312.18 K, 27390 kPa	0.03235
312.2 K, 25850 kPa	0.03134
312.35 K, 27380 kPa	0.0324
312.59 K, 17170 kPa	0.02649
312.61 K, 13790 kPa	0.02465
312.73 K, 10320 kPa	0.02285

FC(F)C(F)(F)F [pentafluoroethane] + C=C(F)C(F)(F)F
[1], x1 = 0.5
Conditions	thermal conductivity [W/m/K]
259.84 K, 1110 kPa, Liquid	0.0717
284.9 K, 1150 kPa, Liquid	0.0674
285.15 K, 1880 kPa, Liquid	0.0686
304.07 K, 2060 kPa, Liquid	0.0644
305.21 K, 3030 kPa, Liquid	0.0595
324.75 K, 3030 kPa, Liquid	0.0529
334.55 K, 1340 kPa, Gas	0.01759
354.3 K, 1450 kPa, Gas	0.01925
354.63 K, 1840 kPa, Gas	0.02057
374.24 K, 2810 kPa, Gas	0.02329
374.46 K, 2040 kPa, Gas	0.02202
394.23 K, 3100 kPa, Gas	0.02512

FC(F)C(F)(F)F [pentafluoroethane] + CC(F)F
[1], x1 = 0.5
Conditions	thermal conductivity [W/m/K]
264.9 K, 1000 kPa, Liquid	0.0845
273.97 K, 2140 kPa, Liquid	0.0856
284.7 K, 1000 kPa, Liquid	0.0799
294.68 K, 3030 kPa, Liquid	0.0789
294.83 K, 2010 kPa, Liquid	0.0774
314.1 K, 3080 kPa, Liquid	0.0646
335.9 K, 1110 kPa, Gas	0.0178
353.81 K, 1710 kPa, Gas	0.01953
353.92 K, 1220 kPa, Gas	0.01934
374.25 K, 1920 kPa, Gas	0.0231
374.33 K, 2760 kPa, Gas	0.0237
393.94 K, 3110 kPa, Gas	0.02557

Cc1ccccc1 [toluene]
[2], 100 kPa, Liquid
Conditions	thermal conductivity [W/m/K]
272.64 K	0.1372
273.45 K	0.1366
295.01 K	0.1308
295.07 K	0.1307
316.82 K	0.1253
318.84 K	0.1243
321.21 K	0.1237
335.27 K	0.12
337.36 K	0.1192
347 K	0.1175

F/C=C/C(F)(F)F [trans-1,3,3,3-tetrafluoropropene] + C=C(F)C(F)(F)F
[1], x1 = 0.5
Conditions	thermal conductivity [W/m/K]
274.82 K, 1240 kPa, Liquid	0.0766
294.69 K, 1080 kPa, Liquid	0.0689
303.67 K, 2050 kPa, Liquid	0.0679
303.96 K, 2960 kPa, Liquid	0.0715
323.14 K, 2920 kPa, Liquid	0.0633
324.62 K, 2070 kPa, Liquid	0.0622
355.01 K, 940 kPa, Gas	0.01929
375.04 K, 1740 kPa, Gas	0.02197
375.09 K, 1010 kPa, Gas	0.02168
393.98 K, 1860 kPa, Gas	0.02321
394.38 K, 2520 kPa, Gas	0.0246
414.22 K, 2920 kPa, Gas	0.02633

F/C=C/C(F)(F)F [trans-1,3,3,3-tetrafluoropropene] + CC(F)(F)F
[1], x2 = 0.5
Conditions	thermal conductivity [W/m/K]
264.94 K, 910 kPa, Liquid	0.0772
285.99 K, 2120 kPa, Liquid	0.0752
286.02 K, 1020 kPa, Liquid	0.0742
304.35 K, 2020 kPa, Liquid	0.069
304.36 K, 3040 kPa, Liquid	0.0685
324.01 K, 2890 kPa, Liquid	0.0624
345.02 K, 950 kPa, Gas	0.01913
364.82 K, 1040 kPa, Gas	0.02103
364.82 K, 1730 kPa, Gas	0.02117
384.54 K, 1920 kPa, Gas	0.02317
384.6 K, 2540 kPa, Gas	0.02357
404.05 K, 2960 kPa, Gas	0.02606

F/C=C/C(F)(F)F [trans-1,3,3,3-tetrafluoropropene] + FC(F)C(F)(F)F
[1], x2 = 0.5
Conditions	thermal conductivity [W/m/K]
262.72 K, 1000 kPa, Liquid	0.0781
285.7 K, 1080 kPa, Liquid	0.0737
285.77 K, 2060 kPa, Liquid	0.0738
304.23 K, 1940 kPa, Liquid	0.0636
304.8 K, 3080 kPa, Liquid	0.0688
324.33 K, 3020 kPa, Liquid	0.0618
333.94 K, 1120 kPa, Gas	0.01783
353.67 K, 1810 kPa, Gas	0.01927
353.84 K, 1230 kPa, Gas	0.01927
373.56 K, 2020 kPa, Gas	0.02145
373.67 K, 3040 kPa, Gas	0.02479
395.41 K, 3040 kPa, Gas	0.02441

F/C=C/C(F)(F)F [trans-1,3,3,3-tetrafluoropropene] + FCC(F)(F)F
[1], x2 = 0.5
Conditions	thermal conductivity [W/m/K]
274.68 K, 980 kPa, Liquid	0.0884
305.14 K, 3140 kPa, Liquid	0.0754
305.18 K, 1040 kPa, Liquid	0.0739
305.22 K, 2040 kPa, Liquid	0.0736
324.82 K, 2960 kPa, Liquid	0.0627
326.02 K, 2030 kPa, Liquid	0.0621
344.05 K, 870 kPa, Gas	0.01922
364.05 K, 990 kPa, Gas	0.02123
364.13 K, 2030 kPa, Gas	0.02192
383.85 K, 2230 kPa, Gas	0.02365
384.09 K, 3030 kPa, Gas	0.02611
403.87 K, 3020 kPa, Gas	0.02684

O [water]
[2], 100 kPa, Liquid
Conditions	thermal conductivity [W/m/K]
292.8 K	0.6012
295.01 K	0.605
303.13 K	0.6184
303.93 K	0.6193
305.47 K	0.622
314.01 K	0.6259
314.95 K	0.6275
334.75 K	0.6479
336.26 K	0.6496
